{"source": "paper PMC5441580", "about": "“GPR40 partial agonist MK-2305 lower fasting glucose in the Goto Kakizaki rat via suppression of endogenous glucose production” (PLoS ONE, 2017)", "key": {"GK rats [1]": {"test_system": "GK rats", "test": "OGTT with insulin co-measurement on Day 13 of chronic treatment, parallel set of animals", "assay_type": "in vivo, rat", "design": "unit not given here", "conditions": "Time 10, individual animals"}, "GK rats [2]": {"test_system": "GK rats", "test": "GK rat acute oral glucose tolerance test (OGTT) with insulin co-measurement", "assay_type": "in vivo", "design": "Blood Glucose AUC / Insulin AUC: unit not given here", "conditions": "for Blood Glucose / Insulin (plasma) / Insulin AUC / Blood Glucose AUC: individual GK rats; for Insulin AUC: OGTT t = 0 to 60 min; for Blood Glucose AUC: OGTT t = 0 to 120 min", "procedure": "On the day of the study, male GK rats were bled via tail snip, and blood glucose was measured via glucometer (OneTouch Ultra, Lifescan Inc., Milpitas, CA). Fed glucose was measured at 8 A.M. (lights on 7 A.M.– 7 P.M.) and used to select and sort animals into treatment groups (n = 8/ GK group, plus n = 6/WKY control group). Animals were then placed into clean cages, and food was removed. […] Dosages from 0.3–10 mg MK-2305 / kg body weight were tested. Both the GK and WKY control groups received vehicle (0.5% methylcellulose). Blood glucose was measured again (time = 0) immediately prior to a dextrose challenge of 1 g/kg at 10 ml/kg dose volume (Dextrose, Hospira Inc., Lake Forrest IL) and then again at 20, 40, 60, and 120 min after the glucose challenge. Insulin was co-measured to test the glucose-dependent secretory response to MK-2305 delivered acutely PO. […] […] Values of percent inhibition vs. vehicle for each treatment were generated from the AUC data. Maximally efficacious dose (MED) was defined as the minimum dosage generating a maximum inhibition of glucose excursion achieved with this compound in the OGTT assay.\nPlasma was analyzed for triglycerides, NEFA, and HbA1C using a P Modular Roche Clinical Chemistry analyzer. Liver triglycerides were extracted as described by Bligh and Dyer, and were measured using the Infinity triglyceride assay kit (Thermo Scientific, Rockford, IL). Plasma insulin levels were measured via EIA (Mesoscale Discovery ELISA Kit, Gaithersburg MD)."}, "[3]": {"conditions": "10 mg/kg PO, GK rats, p < 0.001"}, "[4]": {"conditions": "0.3 mpk PO, 60 min after glucose challenge"}, "[5]": {"conditions": "1 mpk PO, 60 min after glucose challenge"}, "[6]": {"conditions": "3 mpk PO, 60 min after glucose challenge"}, "[7]": {"conditions": "10 mpk PO, 60 min after glucose challenge"}}, "note": "“And” between values parts separate entries of the source, which are not always exact repeats. Identical values can stand only once."}
{"smiles": "O=C1NC(=O)C(C2CCOc3cc(Oc4ccc(C(F)(F)F)cc4Cl)ccc32)S1", "note": "(stereo not drawn) [MK-2305]", "values": [{"measurement": "Change in plasma insulin from baseline during OGTT (delta insulin)", "setting": "GK rats [1]; Acute, 30 mpk, 30 mg/kg", "value": "1.28 and 1.368 and 1.816 and 3.661 and 3.304 and 1.312 and 2.648 and 2.392 and 0.317 and 1.559"}, {"measurement": "Change in plasma insulin from baseline during OGTT (delta insulin)", "setting": "GK rats [1]; Chronic, 30 mkd", "value": "1.342 and 0.561 and 1.202 and 1.9 and 1.117 and 1.167 and 2.431 and 1.17 and 1.428 and 0.831"}, {"measurement": "decrease of glucose AUC vs. vehicle in OGTT", "setting": "GK rats [2]; 0.3 mg/kg PO, GK rats, p < 0.001", "value": 18, "unit": "%"}, {"measurement": "increase in plasma insulin vs. vehicle during OGTT", "setting": "GK rats [2]; 1 mg/kg PO, GK rats, p < 0.001", "value": 59, "unit": "%"}, {"measurement": "increase in plasma insulin vs. vehicle during OGTT", "setting": "GK rats [2]; 3 mg/kg PO, GK rats, p < 0.001", "value": 83, "unit": "%"}, {"measurement": "reduction in glucose AUC from vehicle in OGTT", "setting": "GK rats [2]; 3 mg/kg PO, GK rats, p < 0.001", "value": 40, "unit": "%"}, {"measurement": "decrease of glucose AUC vs. vehicle in OGTT", "setting": "GK rats [2]; [3]", "value": 54, "unit": "%"}, {"measurement": "increase in plasma insulin vs. vehicle during OGTT", "setting": "GK rats [2]; [3]", "value": 124, "unit": "%"}, {"measurement": "Blood Glucose", "setting": "GK rats [2]; 0.3 mpk PO, 40 min after glucose challenge", "value": "254 mg/dl and 284 mg/dl and 328 mg/dl and 294 mg/dl (2×) and 264 mg/dl and 219 mg/dl and 321 mg/dl"}, {"measurement": "Blood Glucose", "setting": "GK rats [2]; [4]", "value": "197 mg/dL and 204 mg/dL and 264 mg/dL and 233 mg/dL and 229 mg/dL and 270 mg/dL and 209 mg/dL and 330 mg/dL"}, {"measurement": "Insulin (plasma)", "setting": "GK rats [2]; [4]", "value": "1.219 ng/mL and 1.901 ng/mL and 1.676 ng/mL and 1.551 ng/mL and 1.782 ng/mL and 1.959 ng/mL and 1.355 ng/mL and 1.696 ng/mL"}, {"measurement": "Blood Glucose", "setting": "GK rats [2]; 0.3 mpk PO, 120 min after glucose challenge", "value": "149 mg/dL and 196 mg/dL and 217 mg/dL and 188 mg/dL and 177 mg/dL and 203 mg/dL and 145 mg/dL and 249 mg/dL"}, {"measurement": "Insulin AUC", "setting": "GK rats [2]; 0.3 mpk PO", "value": "107.011 and 73.5773 and 77.5052 and 96.9965 and 105.345 and 92.3289 and 113.426 and 113.509"}, {"measurement": "Blood Glucose AUC", "setting": "GK rats [2]; 0.3 mpk PO", "value": "30355 and 22170 and 34265 and 24465 and 25900 and 30390 and 27140 and 25850"}, {"measurement": "Insulin (plasma)", "setting": "GK rats [2]; 0.3 mpk PO, time 0 min (before glucose challenge)", "value": "1.527 ng/mL and 1.4 ng/mL and 1.238 ng/mL and 1.748 ng/mL and 1.648 ng/mL and 1.595 ng/mL and 1.041 ng/mL and 1.268 ng/mL"}, {"measurement": "Insulin (plasma)", "setting": "GK rats [2]; 0.3 mpk PO, time -70 min (before dosing)", "value": "0.785 ng/mL and 1.027 ng/mL and 1.247 ng/mL and 1.425 ng/mL and 1.262 ng/mL and 0.879 ng/mL and 0.539 ng/mL and 0.638 ng/mL"}, {"measurement": "Blood Glucose", "setting": "GK rats [2]; 1 mpk PO, 40 min after glucose challenge", "value": "191 mg/dL and 247 mg/dL and 193 mg/dL and 178 mg/dL and 222 mg/dL and 184 mg/dL and 221 mg/dL and 228 mg/dL"}, {"measurement": "Blood Glucose", "setting": "GK rats [2]; [5]", "value": "162 mg/dL and 197 mg/dL and 120 mg/dL and 151 mg/dL and 200 mg/dL and 153 mg/dL and 188 mg/dL and 185 mg/dL"}, {"measurement": "Insulin (plasma)", "setting": "GK rats [2]; [5]", "value": "1.868 ng/mL and 1.957 ng/mL and 1.358 ng/mL and 2.073 ng/mL and 2.523 ng/mL and 1.285 ng/mL and 2.265 ng/mL and 1.751 ng/mL"}, {"measurement": "Blood Glucose", "setting": "GK rats [2]; 1 mpk PO, 120 min after glucose challenge", "value": "120 mg/dL and 147 mg/dL and 101 mg/dL and 113 mg/dL and 162 mg/dL and 119 mg/dL and 110 mg/dL and 132 mg/dL"}, {"measurement": "Insulin AUC", "setting": "GK rats [2]; 1 mpk PO", "value": "127.564 and 125.822 and 145.583 and 145.346 and 124.296 and 92.8339 and 131.803 and 160.953"}, {"measurement": "Blood Glucose AUC", "setting": "GK rats [2]; 1 mpk PO", "value": "18600 and 21570 and 21405 and 19360 and 22440 and 17695 and 17840 and 23185"}, {"measurement": "Insulin (plasma)", "setting": "GK rats [2]; 1 mpk PO, time 0 min (before glucose challenge)", "value": "1.711 ng/mL and 2.457 ng/mL and 1.219 ng/mL and 2.149 ng/mL and 2.161 ng/mL and 2.386 ng/mL and 1.648 ng/mL and 2.525 ng/mL"}, {"measurement": "Insulin (plasma)", "setting": "GK rats [2]; 1 mpk PO, time -70 min (before dosing)", "value": "0.867 ng/mL and 1.049 ng/mL and 0.952 ng/mL and 1.247 ng/mL and 1.294 ng/mL and 0.937 ng/mL and 1.068 ng/mL and 1.695 ng/mL"}, {"measurement": "Blood Glucose", "setting": "GK rats [2]; 3 mpk PO, 40 min after glucose challenge", "value": "134 mg/dl and 184 mg/dl and 174 mg/dl (2×) and 183 mg/dl and 148 mg/dl and 181 mg/dl and 197 mg/dl"}, {"measurement": "Blood Glucose", "setting": "GK rats [2]; [6]", "value": "117 mg/dl and 116 mg/dl (2×) and 128 mg/dl and 136 mg/dl and 121 mg/dl and 86 mg/dl and 167 mg/dl"}, {"measurement": "Insulin (plasma)", "setting": "GK rats [2]; [6]", "value": "1.611 ng/mL and 1.625 ng/mL and 1.542 ng/mL and 2.593 ng/mL and 2.136 ng/mL and 0.682 ng/mL and 1.668 ng/mL and 1.737 ng/mL"}, {"measurement": "Blood Glucose", "setting": "GK rats [2]; 3 mpk PO, 120 min after glucose challenge", "value": "98 mg/dl and 130 mg/dl and 111 mg/dl and 112 mg/dl and 104 mg/dl (2×) and 78 mg/dl and 124 mg/dl"}, {"measurement": "Insulin AUC", "setting": "GK rats [2]; 3 mpk PO", "value": "154.858 and 139.888 and 150.655 and 143.381 and 149.287 and 136.931 and 166.524 and 165.471"}, {"measurement": "Blood Glucose AUC", "setting": "GK rats [2]; 3 mpk PO", "value": "13845 and 15230 and 19575 and 14655 and 17655 and 16235 and 16890 and 15775"}, {"measurement": "Insulin (plasma)", "setting": "GK rats [2]; 3 mpk PO, time 0 min (before glucose challenge)", "value": "2.038 ng/mL and 2.813 ng/mL and 2.511 ng/mL and 1.822 ng/mL and 2.53 ng/mL and 1.993 ng/mL and 3.94 ng/mL and 2.292 ng/mL"}, {"measurement": "Insulin (plasma)", "setting": "GK rats [2]; 3 mpk PO, time -70 min (before dosing)", "value": "1.014 ng/mL and 1.059 ng/mL and 0.86 ng/mL and 1.354 ng/mL and 1.26 ng/mL and 1.009 ng/mL and 0.738 ng/mL and 0.715 ng/mL"}, {"measurement": "Insulin (plasma)", "setting": "GK rats [2]; 10 mpk PO, 10 min after glucose challenge", "value": "2.601 ng/mL and 2.364 ng/mL and 2.726 ng/mL and 5.09 ng/mL"}, {"measurement": "Blood Glucose", "setting": "GK rats [2]; 10 mpk PO, 40 min after glucose challenge", "value": "175 mg/dL and 159 mg/dL and 143 mg/dL and 141 mg/dL and 190 mg/dL and 140 mg/dL and 169 mg/dL and 138 mg/dL"}, {"measurement": "Blood Glucose", "setting": "GK rats [2]; [7]", "value": "112 mg/dL and 121 mg/dL and 110 mg/dL and 96 mg/dL and 134 mg/dL and 125 mg/dL and 136 mg/dL and 122 mg/dL"}, {"measurement": "Insulin (plasma)", "setting": "GK rats [2]; [7]", "value": "3.212 ng/mL and 2.293 ng/mL and 2.244 ng/mL and 2.355 ng/mL and 1.203 ng/mL and 2.734 ng/mL and 1.35 ng/mL and 1.965 ng/mL"}, {"measurement": "Blood Glucose", "setting": "GK rats [2]; 10 mpk PO, 120 min after glucose challenge", "value": "95 mg/dL and 96 mg/dL and 92 mg/dL and 103 mg/dL and 108 mg/dL and 106 mg/dL and 90 mg/dL and 86 mg/dL"}, {"measurement": "Insulin AUC", "setting": "GK rats [2]; 10 mpk PO", "value": "214.776 and 171.523 and 203.357 and 192.34 and 162.197 and 187.807 and 233.894 and 115.015"}, {"measurement": "Blood Glucose AUC", "setting": "GK rats [2]; 10 mpk PO", "value": "15625 and 16245 and 14660 and 15615 and 15760 and 13890 and 14070 and 17780"}, {"measurement": "Insulin (plasma)", "setting": "GK rats [2]; 10 mpk PO, time 0 min (before glucose challenge)", "value": "4.429 ng/mL and 3.472 ng/mL and 2.279 ng/mL and 3.372 ng/mL and 2.041 ng/mL and 3.234 ng/mL and 3.429 ng/mL and 2.217 ng/mL"}, {"measurement": "Insulin (plasma)", "setting": "GK rats [2]; 10 mpk PO, time -70 min (before dosing)", "value": "1.186 ng/mL and 1.004 ng/mL and 1.491 ng/mL and 1.304 ng/mL and 0.764 ng/mL and 1.19 ng/mL and 0.996 ng/mL and 0.784 ng/mL"}, {"measurement": "Blood Glucose", "setting": "GK rats [2]; 10 mpk PO, time AM (fed, before dosing)", "value": "188 mg/dL and 169 mg/dL and 124 mg/dL and 160 mg/dL"}]}
